Experimental data taken from article PMC6930555, “Design, Synthesis, and Structural Characterization of Novel Diazaphenothiazines with 1,2,3-Triazole Substituents as Promising Antiproliferative Agents” (Molecules, 2019).

system: lung cancer A549; assay: WST-1 cell proliferation assay, A549; assay type: cell-based, human; conditions: Homo sapiens; A549, WST-1, 72 h; read-out: Anticancer Activity IC50 A549
Description: (§1) Encouraged by our previous promising results in the field of antiproliferative activity of dipyridothiazines as well as by the good anticancer activity of the 1,2,3-triazoles, we decided to combine the biological potentials of dipyridothiazines and triazole moieties, hoping to obtain compounds with better activity. The antiproliferative activity of all 20 new 10-substituted 1,2,3-triazole derivatives of dipyridothiazines was tested in vitro against cancer cell lines: glioblastoma SNB-19, colorectal carcinoma Caco-2, lung cancer A549, and breast cancer MDA-MB231 using the WST-1 assay. Normal human fibroblasts NHDF were used as a control.
(§2) All dipyridothiazines with 1,2,3-triazole substituents (1–4)b–f were evaluated for their anticancer activity using four cultured cell lines: SNB-19 (human glioblastoma, DSMZ—German Collection of Microorganisms and Cell Cultures, Braunschweig, Germany), Caco-2 (human colon adenocarcinoma, DSMZ—German Collection of Microorganisms and Cell Cultures, Braunschweig, Germany), A549 (human lung carcinoma, ATCC, Manassas, VA, USA) and MDA-MB231 (human breast adenocarcinoma, ATCC, Manassas, VA, USA), and NHDF (human dermal fibroblast cell line, ATCC, Manassas, VA, USA. The cultured cells were kept at 37 °C and 5% CO2. The cells were seeded (1 × 10^4 cells/well/100 µL DMEM supplemented with 10% FCS and streptomycin and penicillin) using 96-well plates (Corning). The cells were counted in a hemocytometer (Burker’s chamber) using a phase contrast Olympus IX50 microscope equipped with Sony SSC-DC58 AP camera and Olympus DP10 digital camera.
(§3) Antiproliferative effect of the obtained compounds on the cancer cells was determined using the cell proliferation reagent WST-1 assay (Roche Diagnostics, Mannheim, Germany). This assay is based on the viable cell’s ability to cleave the bright red-colored tetrazolium salt (2-(4-iodophenyl)-3-(4-nitrophenyl)-5-(2,4-disulfophenyl)-2H-tetrazolium, monosodium salt) to dark red soluble formazan by cellular enzymes. An increase in the amount of formazan dye formed correlates to the number of metabolically active cells in the culture. The formazan dye produced by metabolically active cells is quantified by a scanning ELISA reader by measuring the absorbance of the dye solution at appropriate wavelengths. The examined cells were exposed to the tested compounds for 72 h at various concentrations between 0.1 μg/mL and 100 μg/mL (prepared initially at concentration of 1 mg/mL in DMSO). The cells were incubated with WST-1 (10 μL) for 1 h and the absorbance of the samples against a background control was measured at 450 nm using a microplate reader with a reference wavelength at 600 nm. The results are expressed as means of at least two independent experiments performed in triplicate.

Compound	IC50 [µM]
c1ccc(Cn2cc(CN3c4ccncc4Sc4ccncc43)nn2)cc1 [3b, 10-[(1-Benzyl-1H-1,2,3-triazol-4-yl)-methyl]-2,7-diazaphenothiazine]	0.26
Fc1ccc(Cn2cc(CN3c4ccncc4Sc4ccncc43)nn2)cc1 [3c, 10-[(1-(4-Fluorobenzyl)-1H-1,2,3-triazol-4-yl)methyl]-2,7-diazaphenothiazine]	27.2
Clc1ccc(Cn2cc(CN3c4ccncc4Sc4ccncc43)nn2)cc1 [3d, 10-[(1-(4-Chlorobenzyl)-1H-1,2,3-triazol-4-yl)methyl]-2,7-diazaphenothiazine]	17.9
N#Cc1ccc(Cn2cc(CN3c4ccncc4Sc4ccncc43)nn2)cc1 [3e, 10-[(1-(4-Cyanobenzyl)-1H-1,2,3-triazol-4-yl)methyl]-2,7-diazaphenothiazine]	30.1
c1ccc(SCn2cc(CN3c4ccncc4Sc4ccncc43)nn2)cc1 [3f, 10-[(1-Phenylthiomethyl-1H-1,2,3-triazolo-4-ylo)methyl]-2,7-diazaphenothiazine]	0.65
c1ccc(Cn2cc(CN3c4ccncc4Sc4ncccc43)nn2)cc1 [4b, 10-[(1-Benzyl-1H-1,2,3-triazol-4-yl)-methyl]-3,6-diazaphenothiazine]	60.6
Fc1ccc(Cn2cc(CN3c4ccncc4Sc4ncccc43)nn2)cc1 [4c, 10-[(1-(4-Fluorobenzyl)-1H-1,2,3-triazol-4-yl)methyl]-3,6-diazaphenothiazine]	0.25
Clc1ccc(Cn2cc(CN3c4ccncc4Sc4ncccc43)nn2)cc1 [4d, 10-[(1-(4-Chlorobenzyl)-1H-1,2,3-triazol-4-yl)methyl]-3,6-diazaphenothiazine]	54
N#Cc1ccc(Cn2cc(CN3c4ccncc4Sc4ncccc43)nn2)cc1 [4e, 10-[(1-(4-Cyanobenzyl)-1H-1,2,3-triazol-4-yl)methyl]-3,6-diazaphenothiazine]	42.7
c1ccc(SCn2cc(CN3c4ccncc4Sc4ncccc43)nn2)cc1 [4f, 10-[(1-Phenylthiomethyl-1H-1,2,3-triazolo-4-ylo)methyl]-3,6-diazaphenothiazine]	> 100

system: colorectal carcinoma Caco-2; assay: WST-1 cell proliferation assay, Caco-2; assay type: cell-based; conditions: Homo sapiens; Caco-2, WST-1, 72 h; read-out: Anticancer Activity IC50 Caco-2
Description: (§4) The antiproliferative activity of all 20 new 10-substituted 1,2,3-triazole derivatives of dipyridothiazines was tested in vitro against cancer cell lines: glioblastoma SNB-19, colorectal carcinoma Caco-2, lung cancer A549, and breast cancer MDA-MB231 using the WST-1 assay. Normal human fibroblasts NHDF were used as a control.
as §2, §3

Compound	IC50 [µM]
c1ccc(Cn2cc(CN3c4ccncc4Sc4ccncc43)nn2)cc1 [3b, 10-[(1-Benzyl-1H-1,2,3-triazol-4-yl)-methyl]-2,7-diazaphenothiazine]	0.26
Fc1ccc(Cn2cc(CN3c4ccncc4Sc4ccncc43)nn2)cc1 [3c, 10-[(1-(4-Fluorobenzyl)-1H-1,2,3-triazol-4-yl)methyl]-2,7-diazaphenothiazine]	29.9
Clc1ccc(Cn2cc(CN3c4ccncc4Sc4ccncc43)nn2)cc1 [3d, 10-[(1-(4-Chlorobenzyl)-1H-1,2,3-triazol-4-yl)methyl]-2,7-diazaphenothiazine]	33.1
N#Cc1ccc(Cn2cc(CN3c4ccncc4Sc4ccncc43)nn2)cc1 [3e, 10-[(1-(4-Cyanobenzyl)-1H-1,2,3-triazol-4-yl)methyl]-2,7-diazaphenothiazine]	10
c1ccc(SCn2cc(CN3c4ccncc4Sc4ccncc43)nn2)cc1 [3f, 10-[(1-Phenylthiomethyl-1H-1,2,3-triazolo-4-ylo)methyl]-2,7-diazaphenothiazine]	14.5
c1ccc(Cn2cc(CN3c4ccncc4Sc4ncccc43)nn2)cc1 [4b, 10-[(1-Benzyl-1H-1,2,3-triazol-4-yl)-methyl]-3,6-diazaphenothiazine]	57.9
Fc1ccc(Cn2cc(CN3c4ccncc4Sc4ncccc43)nn2)cc1 [4c, 10-[(1-(4-Fluorobenzyl)-1H-1,2,3-triazol-4-yl)methyl]-3,6-diazaphenothiazine]	0.25
Clc1ccc(Cn2cc(CN3c4ccncc4Sc4ncccc43)nn2)cc1 [4d, 10-[(1-(4-Chlorobenzyl)-1H-1,2,3-triazol-4-yl)methyl]-3,6-diazaphenothiazine]	42.1
N#Cc1ccc(Cn2cc(CN3c4ccncc4Sc4ncccc43)nn2)cc1 [4e, 10-[(1-(4-Cyanobenzyl)-1H-1,2,3-triazol-4-yl)methyl]-3,6-diazaphenothiazine]	74.3
c1ccc(SCn2cc(CN3c4ccncc4Sc4ncccc43)nn2)cc1 [4f, 10-[(1-Phenylthiomethyl-1H-1,2,3-triazolo-4-ylo)methyl]-3,6-diazaphenothiazine]	67.5

system: glioblastoma SNB-19; assay: WST-1 cell proliferation assay, SNB-19; assay type: cell-based, human; conditions: Homo sapiens; SNB-19, WST-1, 72 h; read-out: Anticancer Activity IC50 SNB-19
Description: as §1, §2, §3

Compound	IC50 [µM]
c1ccc(Cn2cc(CN3c4ccncc4Sc4ccncc43)nn2)cc1 [3b, 10-[(1-Benzyl-1H-1,2,3-triazol-4-yl)-methyl]-2,7-diazaphenothiazine]	2.04
Fc1ccc(Cn2cc(CN3c4ccncc4Sc4ccncc43)nn2)cc1 [3c, 10-[(1-(4-Fluorobenzyl)-1H-1,2,3-triazol-4-yl)methyl]-2,7-diazaphenothiazine]	57.9
Clc1ccc(Cn2cc(CN3c4ccncc4Sc4ccncc43)nn2)cc1 [3d, 10-[(1-(4-Chlorobenzyl)-1H-1,2,3-triazol-4-yl)methyl]-2,7-diazaphenothiazine]	31.3
N#Cc1ccc(Cn2cc(CN3c4ccncc4Sc4ccncc43)nn2)cc1 [3e, 10-[(1-(4-Cyanobenzyl)-1H-1,2,3-triazol-4-yl)methyl]-2,7-diazaphenothiazine]	26.8
c1ccc(SCn2cc(CN3c4ccncc4Sc4ccncc43)nn2)cc1 [3f, 10-[(1-Phenylthiomethyl-1H-1,2,3-triazolo-4-ylo)methyl]-2,7-diazaphenothiazine]	32.6
c1ccc(Cn2cc(CN3c4ccncc4Sc4ncccc43)nn2)cc1 [4b, 10-[(1-Benzyl-1H-1,2,3-triazol-4-yl)-methyl]-3,6-diazaphenothiazine]	20.8
Fc1ccc(Cn2cc(CN3c4ccncc4Sc4ncccc43)nn2)cc1 [4c, 10-[(1-(4-Fluorobenzyl)-1H-1,2,3-triazol-4-yl)methyl]-3,6-diazaphenothiazine]	6.25
Clc1ccc(Cn2cc(CN3c4ccncc4Sc4ncccc43)nn2)cc1 [4d, 10-[(1-(4-Chlorobenzyl)-1H-1,2,3-triazol-4-yl)methyl]-3,6-diazaphenothiazine]	14.9
N#Cc1ccc(Cn2cc(CN3c4ccncc4Sc4ncccc43)nn2)cc1 [4e, 10-[(1-(4-Cyanobenzyl)-1H-1,2,3-triazol-4-yl)methyl]-3,6-diazaphenothiazine]	53.6
c1ccc(SCn2cc(CN3c4ccncc4Sc4ncccc43)nn2)cc1 [4f, 10-[(1-Phenylthiomethyl-1H-1,2,3-triazolo-4-ylo)methyl]-3,6-diazaphenothiazine]	44.8

system: breast cancer MDA-MB231; assay: WST-1 cell proliferation assay, MDA-MB231; assay type: cell-based, human; conditions: Homo sapiens, MDA-MB-231; MDA-MB231, WST-1, 72 h; read-out: Anticancer Activity IC50 MDA-MB231
Description: as §1, §2, §3

Compound	IC50 [µM]
c1ccc(Cn2cc(CN3c4ccncc4Sc4ccncc43)nn2)cc1 [3b, 10-[(1-Benzyl-1H-1,2,3-triazol-4-yl)-methyl]-2,7-diazaphenothiazine]	0.77
Fc1ccc(Cn2cc(CN3c4ccncc4Sc4ccncc43)nn2)cc1 [3c, 10-[(1-(4-Fluorobenzyl)-1H-1,2,3-triazol-4-yl)methyl]-2,7-diazaphenothiazine]	25.7
Clc1ccc(Cn2cc(CN3c4ccncc4Sc4ccncc43)nn2)cc1 [3d, 10-[(1-(4-Chlorobenzyl)-1H-1,2,3-triazol-4-yl)methyl]-2,7-diazaphenothiazine]	4.26
N#Cc1ccc(Cn2cc(CN3c4ccncc4Sc4ccncc43)nn2)cc1 [3e, 10-[(1-(4-Cyanobenzyl)-1H-1,2,3-triazol-4-yl)methyl]-2,7-diazaphenothiazine]	3.5
c1ccc(SCn2cc(CN3c4ccncc4Sc4ccncc43)nn2)cc1 [3f, 10-[(1-Phenylthiomethyl-1H-1,2,3-triazolo-4-ylo)methyl]-2,7-diazaphenothiazine]	0.64
c1ccc(Cn2cc(CN3c4ccncc4Sc4ncccc43)nn2)cc1 [4b, 10-[(1-Benzyl-1H-1,2,3-triazol-4-yl)-methyl]-3,6-diazaphenothiazine]	7.87
Fc1ccc(Cn2cc(CN3c4ccncc4Sc4ncccc43)nn2)cc1 [4c, 10-[(1-(4-Fluorobenzyl)-1H-1,2,3-triazol-4-yl)methyl]-3,6-diazaphenothiazine]	1.97
Clc1ccc(Cn2cc(CN3c4ccncc4Sc4ncccc43)nn2)cc1 [4d, 10-[(1-(4-Chlorobenzyl)-1H-1,2,3-triazol-4-yl)methyl]-3,6-diazaphenothiazine]	13.4
N#Cc1ccc(Cn2cc(CN3c4ccncc4Sc4ncccc43)nn2)cc1 [4e, 10-[(1-(4-Cyanobenzyl)-1H-1,2,3-triazol-4-yl)methyl]-3,6-diazaphenothiazine]	38.8
c1ccc(SCn2cc(CN3c4ccncc4Sc4ncccc43)nn2)cc1 [4f, 10-[(1-Phenylthiomethyl-1H-1,2,3-triazolo-4-ylo)methyl]-3,6-diazaphenothiazine]	44.3

system: SNB-19, Caco-2, A549 and MDA-MB231 cancer cell lines; assay: WST-1 assay, summary over the cancer cell line panel; assay type: cell-based, human; conditions: Homo sapiens; span over SNB-19, Caco-2, A549, MDA-MB231; read-out: IC50 across all investigated cancer cell lines
Description: as §4, §2, §3

Compound	IC50 [µM]
c1ccc(Cn2cc(CN3c4ccncc4Sc4ccncc43)nn2)cc1 [3b, 10-[(1-Benzyl-1H-1,2,3-triazol-4-yl)-methyl]-2,7-diazaphenothiazine]	0.26 to 2.07
Fc1ccc(Cn2cc(CN3c4ccncc4Sc4ncccc43)nn2)cc1 [4c, 10-[(1-(4-Fluorobenzyl)-1H-1,2,3-triazol-4-yl)methyl]-3,6-diazaphenothiazine]	0.25 to 6.25

same assay, conditions: four cancer cell lines

Compound	selectivity among cancer cell lines (in words)
c1ccc(SCn2cc(CN3c4ccncc4Sc4ccncc43)nn2)cc1 [3f, 10-[(1-Phenylthiomethyl-1H-1,2,3-triazolo-4-ylo)methyl]-2,7-diazaphenothiazine]	acted selectively towards A549 and MDA-MB231 cell lines

system: normal human fibroblasts NHDF; assay: WST-1 cytotoxicity assay, normal fibroblasts NHDF; assay type: cell-based; conditions: normal human fibroblasts NHDF, WST-1, 72 h
Description: as §1, §2, §3

Compound	IC50 [µM]
c1ccc(Cn2cc(CN3c4ccncc4Sc4ccncc43)nn2)cc1 [3b, 10-[(1-Benzyl-1H-1,2,3-triazol-4-yl)-methyl]-2,7-diazaphenothiazine]	22.7
Fc1ccc(Cn2cc(CN3c4ccncc4Sc4ccncc43)nn2)cc1 [3c, 10-[(1-(4-Fluorobenzyl)-1H-1,2,3-triazol-4-yl)methyl]-2,7-diazaphenothiazine]	70.6
Clc1ccc(Cn2cc(CN3c4ccncc4Sc4ccncc43)nn2)cc1 [3d, 10-[(1-(4-Chlorobenzyl)-1H-1,2,3-triazol-4-yl)methyl]-2,7-diazaphenothiazine]	> 100
N#Cc1ccc(Cn2cc(CN3c4ccncc4Sc4ccncc43)nn2)cc1 [3e, 10-[(1-(4-Cyanobenzyl)-1H-1,2,3-triazol-4-yl)methyl]-2,7-diazaphenothiazine]	49.5
c1ccc(SCn2cc(CN3c4ccncc4Sc4ccncc43)nn2)cc1 [3f, 10-[(1-Phenylthiomethyl-1H-1,2,3-triazolo-4-ylo)methyl]-2,7-diazaphenothiazine]	52.9
c1ccc(Cn2cc(CN3c4ccncc4Sc4ncccc43)nn2)cc1 [4b, 10-[(1-Benzyl-1H-1,2,3-triazol-4-yl)-methyl]-3,6-diazaphenothiazine]	> 100
Fc1ccc(Cn2cc(CN3c4ccncc4Sc4ncccc43)nn2)cc1 [4c, 10-[(1-(4-Fluorobenzyl)-1H-1,2,3-triazol-4-yl)methyl]-3,6-diazaphenothiazine]	2.85
Clc1ccc(Cn2cc(CN3c4ccncc4Sc4ncccc43)nn2)cc1 [4d, 10-[(1-(4-Chlorobenzyl)-1H-1,2,3-triazol-4-yl)methyl]-3,6-diazaphenothiazine]	> 100
N#Cc1ccc(Cn2cc(CN3c4ccncc4Sc4ncccc43)nn2)cc1 [4e, 10-[(1-(4-Cyanobenzyl)-1H-1,2,3-triazol-4-yl)methyl]-3,6-diazaphenothiazine]	> 100
c1ccc(SCn2cc(CN3c4ccncc4Sc4ncccc43)nn2)cc1 [4f, 10-[(1-Phenylthiomethyl-1H-1,2,3-triazolo-4-ylo)methyl]-3,6-diazaphenothiazine]	> 100
